What was measured:
Assay in all cases: KinomeScan profiling
Type in all cases: binding
[1] = target: T1, ABL1(T315I)-phosphorylated (Homo sapiens, UniProt P00519, T315I); conditions: read-out: % control
T1 construct: purchased KinomeScan®
Method in brief: (§1)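 Luminescence (RLU) was converted to percent of control, with DMSO set as 100% and a reference compound as 0%. Test compounds were run at 1 μM against 468 kinases. Kinases showing below 35% of control were scored as bound.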

AURKB = target: T2, AURKB (Homo sapiens, UniProt Q96GD4); conditions: read-out: % control
T2 construct: purchased KinomeScan®
T2 sequence (Q96GD4 whole entry): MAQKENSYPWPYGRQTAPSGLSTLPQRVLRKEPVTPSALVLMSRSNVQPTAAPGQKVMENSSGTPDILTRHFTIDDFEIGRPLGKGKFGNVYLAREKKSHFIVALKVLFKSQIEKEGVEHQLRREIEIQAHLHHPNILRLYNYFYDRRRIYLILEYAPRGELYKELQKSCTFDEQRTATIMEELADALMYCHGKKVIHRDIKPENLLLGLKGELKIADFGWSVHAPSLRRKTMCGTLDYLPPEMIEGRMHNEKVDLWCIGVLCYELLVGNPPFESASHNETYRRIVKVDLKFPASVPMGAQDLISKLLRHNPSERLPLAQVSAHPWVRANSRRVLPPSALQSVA
Method in brief: as §1

CSNK2A1 = CSNK2A1 (Homo sapiens, UniProt P68400); conditions: CSNK2A1, 1 μM; read-out: % control
CSNK2A1, sequence (P68400 whole entry): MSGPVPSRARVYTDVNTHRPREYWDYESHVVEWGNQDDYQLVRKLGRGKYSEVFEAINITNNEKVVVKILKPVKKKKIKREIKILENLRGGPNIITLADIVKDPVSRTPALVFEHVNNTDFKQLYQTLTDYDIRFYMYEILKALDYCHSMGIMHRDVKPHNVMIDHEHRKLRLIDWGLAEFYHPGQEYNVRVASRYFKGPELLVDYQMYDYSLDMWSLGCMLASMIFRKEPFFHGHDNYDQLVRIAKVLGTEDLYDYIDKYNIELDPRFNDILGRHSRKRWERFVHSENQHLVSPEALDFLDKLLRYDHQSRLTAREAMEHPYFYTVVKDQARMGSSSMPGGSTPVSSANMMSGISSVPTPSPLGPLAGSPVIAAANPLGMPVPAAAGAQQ
Method in brief: as §1

EPHA5 = EPHA5 (Homo sapiens, UniProt P54756); conditions: EPHA5, 1 μM; read-out: % control
EPHA5, sequence (P54756 25-1037): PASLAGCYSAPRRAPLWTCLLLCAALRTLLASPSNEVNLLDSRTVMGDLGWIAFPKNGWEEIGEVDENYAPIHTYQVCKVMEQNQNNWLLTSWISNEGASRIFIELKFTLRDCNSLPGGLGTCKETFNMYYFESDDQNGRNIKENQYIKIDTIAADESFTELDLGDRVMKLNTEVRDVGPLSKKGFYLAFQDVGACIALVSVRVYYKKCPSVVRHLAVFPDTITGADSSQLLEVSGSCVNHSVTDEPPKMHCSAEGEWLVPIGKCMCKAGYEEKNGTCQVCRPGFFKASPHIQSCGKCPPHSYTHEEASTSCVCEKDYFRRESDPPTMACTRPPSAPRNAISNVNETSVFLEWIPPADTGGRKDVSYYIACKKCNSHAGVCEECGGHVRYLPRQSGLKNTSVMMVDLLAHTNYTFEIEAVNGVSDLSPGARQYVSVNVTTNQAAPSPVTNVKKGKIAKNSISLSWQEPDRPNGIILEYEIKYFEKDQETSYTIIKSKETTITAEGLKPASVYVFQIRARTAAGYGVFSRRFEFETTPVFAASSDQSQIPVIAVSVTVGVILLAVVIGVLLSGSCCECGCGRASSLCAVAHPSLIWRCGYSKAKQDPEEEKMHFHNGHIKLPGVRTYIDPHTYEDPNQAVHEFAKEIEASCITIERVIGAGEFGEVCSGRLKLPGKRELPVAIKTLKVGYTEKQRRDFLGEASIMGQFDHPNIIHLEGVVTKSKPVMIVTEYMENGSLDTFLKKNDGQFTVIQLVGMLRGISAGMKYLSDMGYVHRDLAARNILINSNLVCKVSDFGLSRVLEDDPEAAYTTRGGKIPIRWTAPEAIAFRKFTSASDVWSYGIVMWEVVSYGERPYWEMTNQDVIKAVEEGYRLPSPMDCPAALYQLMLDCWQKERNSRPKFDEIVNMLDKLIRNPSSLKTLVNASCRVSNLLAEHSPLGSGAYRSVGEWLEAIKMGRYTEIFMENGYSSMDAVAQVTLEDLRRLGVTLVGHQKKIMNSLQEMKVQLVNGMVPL
Method in brief: as §1

FES = FES (Homo sapiens, UniProt P07332); conditions: read-out: % control
FES, sequence (P07332 whole entry): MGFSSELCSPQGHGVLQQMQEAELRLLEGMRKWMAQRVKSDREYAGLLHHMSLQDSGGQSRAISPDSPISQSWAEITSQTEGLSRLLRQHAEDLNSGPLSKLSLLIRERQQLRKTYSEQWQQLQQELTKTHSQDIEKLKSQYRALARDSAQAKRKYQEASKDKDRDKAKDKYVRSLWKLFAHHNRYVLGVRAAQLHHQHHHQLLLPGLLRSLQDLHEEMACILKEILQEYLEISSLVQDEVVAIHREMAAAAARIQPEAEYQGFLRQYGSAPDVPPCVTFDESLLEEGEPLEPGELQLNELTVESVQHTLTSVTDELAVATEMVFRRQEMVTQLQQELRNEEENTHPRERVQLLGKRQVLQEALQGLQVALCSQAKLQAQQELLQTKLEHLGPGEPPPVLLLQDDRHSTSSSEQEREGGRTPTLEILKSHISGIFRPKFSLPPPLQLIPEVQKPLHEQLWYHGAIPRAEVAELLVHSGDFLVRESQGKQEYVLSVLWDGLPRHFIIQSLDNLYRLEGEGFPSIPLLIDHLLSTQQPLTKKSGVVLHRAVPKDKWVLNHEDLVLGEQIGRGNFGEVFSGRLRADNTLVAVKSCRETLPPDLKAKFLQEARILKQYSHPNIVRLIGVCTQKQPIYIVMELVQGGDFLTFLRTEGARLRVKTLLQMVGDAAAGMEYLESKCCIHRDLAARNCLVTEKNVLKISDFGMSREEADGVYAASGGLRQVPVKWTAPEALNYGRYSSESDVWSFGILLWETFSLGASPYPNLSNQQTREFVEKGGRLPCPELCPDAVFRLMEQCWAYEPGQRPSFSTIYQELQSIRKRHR
Method in brief: as §1

ICK = target: T3, ICK (Homo sapiens, UniProt Q9UPZ9); conditions: read-out: % control
T3 sequence (Q9UPZ9 1-632): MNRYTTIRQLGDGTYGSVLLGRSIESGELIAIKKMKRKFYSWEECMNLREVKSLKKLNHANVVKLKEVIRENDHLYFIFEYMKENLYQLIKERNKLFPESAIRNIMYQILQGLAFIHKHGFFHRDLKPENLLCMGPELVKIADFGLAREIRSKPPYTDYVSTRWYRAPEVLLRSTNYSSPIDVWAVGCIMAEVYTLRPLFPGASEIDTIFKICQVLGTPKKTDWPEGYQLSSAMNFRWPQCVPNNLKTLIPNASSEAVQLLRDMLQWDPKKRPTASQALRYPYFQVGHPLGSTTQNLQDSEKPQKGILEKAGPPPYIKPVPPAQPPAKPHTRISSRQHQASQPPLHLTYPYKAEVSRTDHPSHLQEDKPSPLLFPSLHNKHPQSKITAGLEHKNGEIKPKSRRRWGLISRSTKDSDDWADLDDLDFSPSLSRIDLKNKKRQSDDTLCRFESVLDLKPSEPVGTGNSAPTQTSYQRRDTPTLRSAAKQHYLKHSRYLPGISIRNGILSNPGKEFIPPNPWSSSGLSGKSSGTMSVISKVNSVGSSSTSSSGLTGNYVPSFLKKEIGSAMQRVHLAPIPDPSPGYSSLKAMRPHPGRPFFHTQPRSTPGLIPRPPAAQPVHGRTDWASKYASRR
Method in brief: as §1

PIK3CD = target: T4, PIK3CD (Homo sapiens, UniProt O00329); conditions: read-out: % control
T4 construct: purchased KinomeScan® (panel service)
T4 sequence (O00329 1-1044): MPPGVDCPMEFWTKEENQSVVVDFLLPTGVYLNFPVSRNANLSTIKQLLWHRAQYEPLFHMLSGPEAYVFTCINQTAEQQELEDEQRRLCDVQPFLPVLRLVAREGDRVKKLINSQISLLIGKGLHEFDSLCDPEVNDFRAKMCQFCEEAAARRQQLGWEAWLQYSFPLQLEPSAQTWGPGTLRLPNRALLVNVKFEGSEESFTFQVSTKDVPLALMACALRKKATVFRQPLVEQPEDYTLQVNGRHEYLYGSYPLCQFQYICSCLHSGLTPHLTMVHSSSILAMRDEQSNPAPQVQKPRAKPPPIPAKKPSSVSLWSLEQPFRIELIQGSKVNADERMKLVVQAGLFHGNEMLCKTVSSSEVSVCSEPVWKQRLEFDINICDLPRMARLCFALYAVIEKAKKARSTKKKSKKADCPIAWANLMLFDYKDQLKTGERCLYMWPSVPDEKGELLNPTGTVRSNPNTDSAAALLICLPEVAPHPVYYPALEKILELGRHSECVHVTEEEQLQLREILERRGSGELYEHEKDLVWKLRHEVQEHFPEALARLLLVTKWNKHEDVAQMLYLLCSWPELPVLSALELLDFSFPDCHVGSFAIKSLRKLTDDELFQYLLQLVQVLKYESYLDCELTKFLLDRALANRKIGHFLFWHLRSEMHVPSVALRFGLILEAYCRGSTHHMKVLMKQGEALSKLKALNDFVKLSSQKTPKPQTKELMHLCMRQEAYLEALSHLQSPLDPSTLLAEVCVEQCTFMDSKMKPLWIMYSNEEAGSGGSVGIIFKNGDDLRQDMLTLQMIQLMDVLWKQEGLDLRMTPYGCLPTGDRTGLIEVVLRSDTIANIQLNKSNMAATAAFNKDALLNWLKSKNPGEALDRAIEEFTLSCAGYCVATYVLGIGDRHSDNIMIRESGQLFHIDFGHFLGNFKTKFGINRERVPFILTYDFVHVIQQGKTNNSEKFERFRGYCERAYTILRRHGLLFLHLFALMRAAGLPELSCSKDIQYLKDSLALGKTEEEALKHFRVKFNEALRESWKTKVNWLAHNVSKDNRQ
Method in brief: as §1

[2] = target: T5, RSK3(Kin.Dom.1-N-terminal) (Homo sapiens, UniProt Q15349); conditions: read-out: % control
T5 construct: RSK3(Kin.Dom.1-N-terminal)
T5 sequence (Q15349 59-318 limits assumed): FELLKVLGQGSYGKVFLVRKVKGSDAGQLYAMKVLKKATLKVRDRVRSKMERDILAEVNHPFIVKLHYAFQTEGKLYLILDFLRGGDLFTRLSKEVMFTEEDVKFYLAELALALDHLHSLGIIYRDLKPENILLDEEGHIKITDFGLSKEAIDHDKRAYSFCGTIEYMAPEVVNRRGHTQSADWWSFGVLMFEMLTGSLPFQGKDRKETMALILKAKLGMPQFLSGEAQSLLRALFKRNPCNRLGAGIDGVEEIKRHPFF
Method in brief: as §1

SgK110 = target: T6, SgK110 (Homo sapiens, UniProt P0C264); conditions: SgK110, 1 μM; read-out: % control
T6 construct: purchased KinomeScan® (panel service)
T6 sequence (P0C264 1-359): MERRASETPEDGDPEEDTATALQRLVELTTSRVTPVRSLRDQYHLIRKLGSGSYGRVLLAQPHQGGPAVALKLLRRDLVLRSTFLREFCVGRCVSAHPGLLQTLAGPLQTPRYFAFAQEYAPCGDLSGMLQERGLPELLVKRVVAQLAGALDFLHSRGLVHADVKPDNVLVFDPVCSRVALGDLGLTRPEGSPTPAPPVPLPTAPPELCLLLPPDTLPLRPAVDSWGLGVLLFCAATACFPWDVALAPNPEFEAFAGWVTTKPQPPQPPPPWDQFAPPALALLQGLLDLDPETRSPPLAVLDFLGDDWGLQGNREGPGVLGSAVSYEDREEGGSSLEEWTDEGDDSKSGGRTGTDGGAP
Method in brief: as §1

TNIK = TNIK (Homo sapiens, UniProt Q9UKE5); conditions: read-out: % control
TNIK, sequence (Q9UKE5 whole entry): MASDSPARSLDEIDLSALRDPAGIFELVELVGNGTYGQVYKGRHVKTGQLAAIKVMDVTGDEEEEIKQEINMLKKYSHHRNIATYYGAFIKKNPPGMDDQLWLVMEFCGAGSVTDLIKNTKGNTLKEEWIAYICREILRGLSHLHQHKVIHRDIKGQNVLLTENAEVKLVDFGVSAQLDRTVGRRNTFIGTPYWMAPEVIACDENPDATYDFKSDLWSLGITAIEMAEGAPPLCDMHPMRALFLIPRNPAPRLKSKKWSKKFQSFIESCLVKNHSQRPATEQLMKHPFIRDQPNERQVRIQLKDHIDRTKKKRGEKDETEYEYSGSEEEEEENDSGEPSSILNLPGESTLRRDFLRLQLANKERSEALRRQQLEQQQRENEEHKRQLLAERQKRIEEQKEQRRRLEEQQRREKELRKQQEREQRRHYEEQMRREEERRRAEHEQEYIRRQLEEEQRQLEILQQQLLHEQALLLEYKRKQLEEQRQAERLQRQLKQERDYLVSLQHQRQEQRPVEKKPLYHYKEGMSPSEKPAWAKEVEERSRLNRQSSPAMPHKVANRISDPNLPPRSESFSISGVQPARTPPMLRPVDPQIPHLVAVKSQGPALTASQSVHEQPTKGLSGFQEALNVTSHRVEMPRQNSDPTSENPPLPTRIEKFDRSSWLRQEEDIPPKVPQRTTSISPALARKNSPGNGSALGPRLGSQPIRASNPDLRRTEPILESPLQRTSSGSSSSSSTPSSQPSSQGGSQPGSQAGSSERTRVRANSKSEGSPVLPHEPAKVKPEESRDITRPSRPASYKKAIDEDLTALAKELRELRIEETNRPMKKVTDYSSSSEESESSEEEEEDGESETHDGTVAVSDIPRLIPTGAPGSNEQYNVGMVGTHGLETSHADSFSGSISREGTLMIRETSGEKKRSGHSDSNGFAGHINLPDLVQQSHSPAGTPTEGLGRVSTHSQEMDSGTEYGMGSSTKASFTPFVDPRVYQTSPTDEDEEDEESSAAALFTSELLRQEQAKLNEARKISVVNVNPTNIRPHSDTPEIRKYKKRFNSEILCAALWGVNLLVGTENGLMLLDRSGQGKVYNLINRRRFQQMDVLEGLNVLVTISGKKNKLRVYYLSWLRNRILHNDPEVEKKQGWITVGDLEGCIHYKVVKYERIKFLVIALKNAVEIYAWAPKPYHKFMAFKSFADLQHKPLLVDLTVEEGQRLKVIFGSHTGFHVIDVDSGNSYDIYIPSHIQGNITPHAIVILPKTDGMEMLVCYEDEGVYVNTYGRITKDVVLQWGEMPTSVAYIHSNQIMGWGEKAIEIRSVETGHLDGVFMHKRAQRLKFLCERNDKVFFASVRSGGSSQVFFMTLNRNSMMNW
Method in brief: as §1

VRK2 = VRK2 (Homo sapiens, UniProt Q86Y07); conditions: VRK2, 1 μM; read-out: % control
VRK2, sequence (Q86Y07 whole entry): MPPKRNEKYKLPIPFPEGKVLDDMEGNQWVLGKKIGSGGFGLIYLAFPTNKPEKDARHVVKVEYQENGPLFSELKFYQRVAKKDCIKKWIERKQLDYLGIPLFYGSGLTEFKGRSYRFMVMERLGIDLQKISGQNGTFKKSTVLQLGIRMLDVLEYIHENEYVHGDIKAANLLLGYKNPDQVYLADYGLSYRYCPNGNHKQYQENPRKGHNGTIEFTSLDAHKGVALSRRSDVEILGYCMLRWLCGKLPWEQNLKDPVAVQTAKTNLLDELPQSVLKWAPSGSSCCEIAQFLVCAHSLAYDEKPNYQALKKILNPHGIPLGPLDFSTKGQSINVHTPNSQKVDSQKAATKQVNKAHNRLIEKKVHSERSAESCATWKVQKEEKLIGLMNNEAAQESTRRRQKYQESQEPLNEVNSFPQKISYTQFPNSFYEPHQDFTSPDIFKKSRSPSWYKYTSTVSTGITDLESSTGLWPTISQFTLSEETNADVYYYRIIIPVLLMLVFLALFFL
Method in brief: as §1

Row | SMILES | remaining binding at 1 µM [1] | remaining binding at 1 µM (AURKB) | remaining binding at 1 µM (CSNK2A1) | remaining binding at 1 µM (EPHA5) | remaining binding at 1 µM (FES) | remaining binding at 1 µM (ICK) | remaining binding at 1 µM (PIK3CD) | remaining binding at 1 µM [2] | remaining binding at 1 µM (SgK110) | remaining binding at 1 µM (TNIK) | remaining binding at 1 µM (VRK2)
1 | CNc1c(-c2cnn([C@H]3CCN(C(C)=O)C[C@@H]3F)c2)cnc2[nH]cc(Cl)c12 [Compound 77, 1-((3S,4S)-4-(4-(3-chloro-4-(methylamino)-1H-pyrrolo[2,3-b]pyridin-5-yl)-1H-pyrazol-1-yl)-3-fluoropiperidin-1-yl)ethan-1-one] | 31% | 24% | 75% | 96% | 95% | 35% | 85% | 80% | 100% | 29% | 66%
2 | CNc1c(-c2ccc(C(=O)N3CCC(N4CCOCC4)CC3)cc2)cnc2[nH]cc(Cl)c12 [Compound 96, (4-(3-chloro-4-(methylamino)-1H-pyrrolo[2,3-b]pyridin-5-yl)phenyl)(4-morpholinopiperidin-1-yl)methanone] | 52% | 53% | 72% | 100% | 95% | 35% | 84% | 78% | 100% | 14% | 79%
3 | O=C(c1ccc(-c2cnc3[nH]cc(Cl)c3c2NC2CCCC2)cc1)N1CCC(N2CCOCC2)CC1 [Compound 101, (4-(3-chloro-4-(cyclopentylamino)-1H-pyrrolo[2,3-b]pyridin-5-yl)phenyl)(4-morpholinopiperidin-1-yl)methanone] | 95% | 100% | 100% | 98% | 72% | 100% | 100% | 66% | 100% | 89% | 100%
